Measurements taken from PubChem BioAssay AID602186 (Broad Institute, 2012).
Active and inactive are the calls of the source.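 Rule for the calls: active = compounds reducing C. glabrata growth on glycerol with a fitted half-effect dose within twice the top tested dose; inconclusive = flat curve with moderate growth loss, or an unreliable fit; inactive = the rest.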

Legend:
[1] = system: Candida glabrata growth in glycerol, OD600, 48 h; assay: Candida glabrata respiratory growth inhibition – glycerol medium, OD600, dry powder, dose response (AID 602186)
[2] = as above; settings: Candida glabrata growth in glycerol, OD600, 48 h

Compound | AC50 [1] [nM] | other results
O=C(Nc1nc(-c2ccccn2)cs1)c1ccc(Br)s1 | 1200 | –
Oc1c(C(c2ccc(Cl)cc2)N2CCCC2)ccc2cccnc12 (centres undefined) | 13400 | –
Oc1c(CN2CCc3ccccc3C2)cc(Cl)c2cccnc12 | 13600 | –
O=C(NNC(=S)Nc1ccc(Cl)c(Cl)c1)c1ccccn1 | 119 | –
Cc1cc(C)n(-c2nc3ccccc3c(=O)n2OCC#N)n1 | – | activity change, negative = inhibition ([2]; at 19.5 µM (top of the series)): -19.2% (inactive)
CN1CCN(C(c2ccc(C(F)(F)F)cc2)c2ccc3cccnc3c2O)CC1 (centres undefined) | 2960 | –
O=C(Nc1nc(-c2ccccc2)cs1)c1ccc(Br)s1 | – | activity change, negative = inhibition ([2]; at 19.5 µM (top of the series)): -6.9% (inactive)
O=C(Nc1nnc(-c2ccc3c(c2)CCCC3)o1)c1ccc(Cl)cc1Cl | – | activity change, negative = inhibition ([2]; at 19.5 µM (top of the series)): -18.1% (inactive)
NC(=O)c1cccc(C(=O)Nc2nc(-c3ccc4c(c3)CCCC4)cs2)c1 | – | activity change, negative = inhibition ([2]; at 19.5 µM (top of the series)): 9.1% (inactive)
Cc1ccc(C(=O)Nc2nc(-c3ccccn3)cs2)cc1 | 3280 | –
O=C(Nc1nc(-c2ccccn2)cs1)c1ccccc1 | 11500 | –
C/C(=N\NC(=O)c1cc2ccccc2cc1O)c1ccccn1 | 8890 | –
Cc1ccc(-c2nc3c(Cl)cc(Cl)cc3c(=O)n2O)cc1 | 1390 | –
CCOC(=O)N1C(=O)C2(CCCCC2)N(c2ccc(C)cc2)C1=S | 141 | –
Oc1c(CN2CCN(c3ccccc3)CC2)cc(Cl)c2cccnc12 | – | activity change, negative = inhibition ([2]; at 23.5 µM (top of the series)): -34.4% (inactive)
CCCC(=O)NC(c1cccs1)c1cc(Cl)c2cccnc2c1O (centres undefined) | 2140 | –
C=CCNC(=S)N/N=C(\C)c1ccccn1 | 508 | –
COc1ccc(-c2nnc(NC(=O)c3ccc(S(=O)(=O)N4CCCc5ccccc54)cc3)o2)cc1 | – | activity change, negative = inhibition ([2]; at 19.5 µM (top of the series)): -21.8% (inactive)
O=C(Nc1nc(-c2ccc3c(c2)CCCC3)cs1)c1ccccc1 | – | activity change, negative = inhibition ([2]; at 19.5 µM (top of the series)): 25.4% (inactive)
O=C(Nc1nc(-c2ccccn2)cs1)c1ccc(Cl)s1 | 1380 | –
O=C(Nc1nnc(-c2ccc3c(c2)CCCC3)o1)c1ccccc1 | 10300 | –
O=C(Oc1c(Cl)cc(Cl)c2cccnc12)c1ccco1 | 617 | –
Cc1ccc(C(=O)Nc2nnc(-c3ccccc3)o2)cc1C | – | activity change, negative = inhibition ([2]; at 19.5 µM (top of the series)): 5.05% (inactive)
Oc1c(C(c2ccccc2Cl)N2CCCCC2)ccc2cccnc12 (centres undefined) | 9060 | –
